In patent US20100216772A1, “Novel Phenantridine Analogues and Uses Thereof” (priority 2004, published 2010) one finds inhibition and EC50 data, which are given here for 25 compounds.

Each structure is given as a SMILES string.

For one experiment, the system named is HaCaT keratinocytes. Kind of experiment: Influence of compounds on keratinocyte proliferation (Cell Titer Viability Assay). The format is cell-based. The conditions noted are these: Homo sapiens, 25 μM test compound, 48 hrs, compared to control experiments. As for the experimental part:
5×10^3 HaCaT keratinocytes were seeded into 60 wells of 96 well plates in 200 μl KBM/10% FCS and incubated for 24 hrs at 37° C. The test compounds were dissolved at 100 mM in DMSO. The test items were then diluted to a concentration of 25 μM in KBM/FCS with a final concentration of 1% DMSO. The test compounds, as well as the negative control for unstimulated cells (KBM/1% DMSO) and stimulated cells (KBM/FCS/1% DMSO), were added to the HaCaTs in triplicates and incubated for 48 hrs. At the end of the incubation period, the media was removed and cell numbers were determined with Cell Titer Viability Assay from Promega (#G7571/G7572) according to the manufacturer's instructions.

In experiment [1] the test system is Peripheral blood mononuclear cells (PBMCs). Kind of experiment: Influence of compounds on T cell proliferation ([3H]-Thymidin, anti-CD3-stimulated PBMCs). The format is cell-based. To be noted: PBMC, three different human donors. The text has this: Peripheral blood mononuclear cells (PBMCs) were isolated from peripheral blood by Ficoll gradient centrifugation. […] Subsequently, the cells were washed three times with PBS and were resuspended in 96-well plates in a concentration of 2×10^5 cells/well. […] As positive and negative controls, PBMCs, stimulated with soluble anti-CD3-antibody, and non-stimulated PBMCs plus 0,1% DMSO were used. The addition of 0,1% DMSO had no effect on the proliferation rate. […] The cells were harvested using a Mikro 96 Harvester (Skatron Instruments, Lier, Norwegen). The cpm-values indicative for proliferation were determined using a Packard Matrix 9600 Counter (Canberra Packard, Schwadorf, Österreich). The experiments were made with three different human donors.
In order to determine the EC50 of test compounds, the value of anti-CD3-stimulated cells plus 0,1% DMSO was set as 100%. All other values were divided by the 100% value in order to obtain a relative percentage of inhibition. The obtained percentage values were used to determine the EC50 values using Sigma Plot.

`CC(=O)N1c2ccccc2-c2ccccc2C1c1c[nH]c2ccccc12` (centres unmarked) [Example 3, 1-[6-(1H-Indol-3-yl)-6H-phenanthridin-5-yl]-ethanone] came in with an inhibition at 25 µM in the experiment on HaCaT keratinocytes of over 50%. In experiment [1], the EC50 was under 25 µM.
`O=C(c1ccccc1)N1c2ccccc2-c2ccccc2C1c1c[nH]c2ccccc12` (centres unmarked) [Example 4, [6-(1H-Indol-3-yl)-6H-phenanthridin-5-yl]-phenylmethanone]: in the experiment on HaCaT keratinocytes, the inhibition at 25 µM was over 50%.
In turn, `CN(C)c1ccc(C(=O)N2c3ccccc3-c3ccccc3C2c2c[nH]c3ccccc23)cc1` (centres unmarked) [Example 6, (4-Dimethylamino-phenyl)-[6-(1H-indol-3-yl)-6H-phenanthridin-5-yl]-methanone] registered an inhibition at 25 µM in the experiment on HaCaT keratinocytes of over 50%.
Turning to `O=C(c1ccc(C(F)(F)F)cc1)N1c2ccccc2-c2ccccc2C1c1c[nH]c2ccccc12` (centres unmarked) [Example 7, [6-(1H-Indol-3-yl)-6H-phenanthridin-5-yl]-(4-trifluoromethyl-phenyl)-methanone], the inhibition at 25 µM in the experiment with HaCaT keratinocytes is over 50%.
`O=C(c1cccc(F)c1)N1c2ccccc2-c2ccccc2C1c1c[nH]c2ccccc12` (centres unmarked) [Example 12, (3-Fluoro-phenyl)-[6-(1H-indol-3-yl)-6H-phenanthridin-5-yl]-methanone] had an inhibition at 25 µM in the experiment on HaCaT keratinocytes of over 50%. In addition, the EC50 in experiment [1] was under 25 µM.
As for `O=C(c1cccc(C(F)(F)F)c1)N1c2ccccc2-c2ccccc2C1c1c[nH]c2ccccc12` (centres unmarked) [Example 14, [6-(1H-Indol-3-yl)-6H-phenanthridin-5-yl]-(3-trifluoromethyl-phenyl)-methanone], in the experiment on HaCaT keratinocytes, the inhibition at 25 µM was over 50%.
In the experiment on HaCaT keratinocytes, `O=C(c1cc(C(F)(F)F)cc(C(F)(F)F)c1)N1c2ccccc2-c2ccccc2C1c1c[nH]c2ccccc12` (centres unmarked) [Example 17, (3,5-Bis-trifluoromethyl-phenyl)-[6-(1H-indol-3-yl)-6H-phenanthridin-5-yl]-methanone] registered an inhibition at 25 µM of over 50%.
On to `O=C(c1ccc(Cl)nc1)N1c2ccccc2-c2ccccc2C1c1c[nH]c2ccccc12` (centres unmarked) [Example 20, (6-Chloro-pyridin-3-yl)-[6-(1H-indol-3-yl)-6H-phenanthridin-5-yl]-methanone], for which the inhibition at 25 µM in the experiment on HaCaT keratinocytes was over 50%.
In the experiment on HaCaT keratinocytes, `O=C(c1cccnc1Cl)N1c2ccccc2-c2ccccc2C1c1c[nH]c2ccccc12` (centres unmarked) [Example 21, (2-Chloro-pyridin-3-yl)-[6-(1H-indol-3-yl)-6H-phenanthridin-5-yl]-methanone] showed an inhibition at 25 µM of over 50%. The compound also returned an EC50 in experiment [1] of under 25 µM.
Compound `O=C(c1ccco1)N1c2ccccc2-c2ccccc2C1c1c[nH]c2ccccc12` (centres unmarked) [Example 23, Furan-2-yl-[6-(1H-indol-3-yl)-6H-phenanthridin-5-yl]-methanone] had an inhibition at 25 µM with HaCaT keratinocytes of over 50%. Besides, in experiment [1], the EC50 is under 25 µM.
The like results for `CC(C)C(=O)N1c2ccccc2-c2ccccc2C1c1c[nH]c2ccccc12` (centres unmarked) [Example 26, 1-[6-(1H-Indol-3-yl)-6H-phenanthridin-5-yl]-2-methyl-propan-1-one] were, in that order, over 50% and under 25 µM.
For the compound `CCCC(C)C(=O)N1c2ccccc2-c2ccccc2C1c1c[nH]c2ccccc12` (centres unmarked) [Example 28, 1-[6-(1H-Indol-3-yl)-6H-phenanthridin-5-yl]-2-methyl-pentan-1-one], the inhibition at 25 µM in the experiment with HaCaT keratinocytes is over 50%. In experiment [1], the EC50 is under 25 µM.
Consider `O=C(C1CCC1)N1c2ccccc2-c2ccccc2C1c1c[nH]c2ccccc12` (centres unmarked) [Example 30, Cyclobutyl-[6-(1H-indol-3-yl)-6H-phenanthridin-5-yl]-methanone], for which the inhibition at 25 µM in the experiment on HaCaT keratinocytes is over 50%.
`O=C(CCC1CCCCC1)N1c2ccccc2-c2ccccc2C1c1c[nH]c2ccccc12` (centres unmarked) [Example 34, 3-Cyclohexyl-1-[6-(1H-indol-3-yl)-6H-phenanthridin-5-yl]-propan-1-one] displayed an inhibition at 25 µM with HaCaT keratinocytes of over 50%.
In turn, `O=C(CCc1ccccc1)N1c2ccccc2-c2ccccc2C1c1c[nH]c2ccccc12` (centres unmarked) [Example 35, 1-[6-(1H-Indol-3-yl)-6H-phenanthridin-5-yl]-3-phenyl-propan-1-one] yielded an inhibition at 25 µM in the experiment on HaCaT keratinocytes of over 50%.
On the same count and under the same terms, the same measure for `COC(=O)N1c2ccccc2-c2ccccc2C1c1c[nH]c2ccccc12` (centres unmarked) [Example 36, 6-(1H-Indol-3-yl)-6H-phenanthridine-5-carboxylic acid methyl ester]: over 50%.
Compound `Cc1ccc(S(=O)(=O)N2c3ccccc3-c3ccccc3C2c2ccc3c(c2)OCO3)cc1` (centres unmarked) [Example 76, 6-Benzo[1,3]dioxol-5-yl-5-(toluene-4-sulfonyl)-5,6-dihydro-phenanthridine] came in with an EC50 in experiment [1] of under 25 µM.
The same measure, in the same setting: the same measure for `Cc1ccc(C(=O)n2c(=O)c3ccccc3c3ccccc32)cc1` [Example 77, 5-(4-Methyl-benzoyl)-5H-phenanthridin-6-one]: under 25 µM.
On to `Cc1ccc(S(=O)(=O)N2CC(=O)c3ccccc3-c3ccccc32)cc1` [Example 78, 5-(Toluene-4-sulfonyl)-5,6-dihydro-dibenzo[b,d]azepin-7-one], for which the inhibition at 25 µM in the experiment on HaCaT keratinocytes is over 50%. For the same compound, in experiment [1], the EC50 is under 25 µM.
Take `O=C1CN(S(=O)(=O)c2ccccc2)c2ccccc2-c2ccccc21` [Example 79, 5-Benzenesulfonyl-5,6-dihydro-dibenzo[b,d]azepin-7-one]: in experiment [1], the concentration for a half-maximal effect (EC50) is under 25 µM.
Same read-out and setting: the same measure for `CC(=O)Nc1ccc(S(=O)(=O)N2CC(=O)c3ccccc3-c3ccccc32)cc1` [Example 81, N-[4-(7-Oxo-6,7-dihydro-dibenzo[b,d]azepine-5-sulfonyl)-phenyl]-acetamide]: under 25 µM; for `O=C1CN(S(=O)(=O)c2ccc(Br)cc2)c2ccccc2-c2ccccc21` [Example 82, 5-(4-Bromo-benzenesulfonyl)-5,6-dihydro-dibenzo[b,d]azepin-7-one]: under 25 µM.
On the same count and under the same terms, the same measure for `O=C1CN(S(=O)(=O)c2ccc([N+](=O)[O-])cc2)c2ccccc2-c2ccccc21` [Example 83, 5-(4-Nitro-benzenesulfonyl)-5,6-dihydro-dibenzo[b,d]azepin-7-one]: under 25 µM; for `O=C1CN(S(=O)(=O)c2cc(C(F)(F)F)cc(C(F)(F)F)c2)c2ccccc2-c2ccccc21` [Example 84, 5-(3,5-Bis-trifluoromethyl-benzenesulfonyl)-5,6-dihydro-dibenzo[b,d]azepin-7-one]: under 25 µM; for `O=C1CN(S(=O)(=O)c2cccs2)c2ccccc2-c2ccccc21` [Example 86, 5-(Thiophene-2-sulfonyl)-5,6-dihydro-dibenzo[b,d]azepin-7-one]: under 25 µM.
